“And” between values parts separate entries of the source, which are not always exact repeats. Equal entries are not always repeated. Where two headings read alike, the source gives them in different places.
Key:
dopamine D5 receptor = dopamine D5 receptor (Homo sapiens (Human), UniProt P21918); test: Secondary radioligand binding assay, D5; set-up: key to Ki D5: “—” indicates that a binding interaction was not detected; conditions: average of at least two experiments
Experimental: (§1) 1. Secondary Radioligand Binding Assays
(§2) The detailed experimental protocols for the radioligand and functional receptor assays are available on the NIMH PDSP website at http://pdsp.med.unc.edu/UNC-CH %20Protocol %20Book.pdf.
(§3) Radioligand is diluted to five times the assay concentration (see Table 18) in Standard Binding Buffer. Typically, the assay concentration of radioligand is a value between one half the KD and the KD of a particular radioligand at its target. 50 μl aliquots of radioligand are dispensed into the wells of a 96-well plate containing 100 μl of Standard Binding Buffer. Then, duplicate 50 μl aliquots of the test and reference compound dilutions are added.
(§4) The 250 μl reactions are incubated at room temperature and shielded from light (to prevent photolysis of light-sensitive ligands) for 1.5 hours, then harvested by rapid filtration onto Whatman GF/B glass fiber filters pre-soaked with 0.3% polyethyleneimine using a 96-well Brandel harverster. Four rapid 500 μl washes are performed with chilled Standard Binding Buffer to reduce non-specific binding. Filters are placed in 6 ml scintillation tubes and allowed to dry overnight. The next day, 4 ml of EcoScint scintillation cocktail (National Diagnostics) are added to each tube. The tubes are capped, labeled, and counted by liquid scintillation counting. […] The filter mats are dried, then scintillant is melted onto the filters and the radioactivity retained on the filters is counted in a Microbeta scintillation counter.
(§5) Raw data (dpm) representing total radioligand binding (i.e. specific+non-specific binding) are plotted as a function of the logarithm of the molar concentration of the competitor (i.e. test or reference compound).
(§6) B. Dopamine Receptors: D1, D2, D3, D4, D5 Assay Buffers: Dopamine Binding Buffer (50 mM NaCl, 50 mM HEPES-HCl, 5 mM MgCl2, 0.5 mM EDTA, pH 7.4) Membrane Fraction Source: Transiently or stably transfected cell lines (e.g. HEK293, COS, CHO, NIH3T3)
(§7) The method is carried out in the manner described for the serotonin receptor assay above. Eleven dilutions (5× assay concentration) of the test and reference (see Table 19) compounds are prepared in Dopamine Binding Buffer by serial dilution, as previously described. Radioligand is diluted to five times the assay concentration (see Table 20) in Dopamine Binding Buffer.

5HT4 receptor = 5HT4 receptor (Homo sapiens (Human), UniProt Q13639); test: Secondary radioligand binding assay, 5HT4; set-up: key: “—” indicates that a binding interaction was not detected; conditions: average of at least two experiments
Chain of 5HT4 receptor (Q13639 whole entry): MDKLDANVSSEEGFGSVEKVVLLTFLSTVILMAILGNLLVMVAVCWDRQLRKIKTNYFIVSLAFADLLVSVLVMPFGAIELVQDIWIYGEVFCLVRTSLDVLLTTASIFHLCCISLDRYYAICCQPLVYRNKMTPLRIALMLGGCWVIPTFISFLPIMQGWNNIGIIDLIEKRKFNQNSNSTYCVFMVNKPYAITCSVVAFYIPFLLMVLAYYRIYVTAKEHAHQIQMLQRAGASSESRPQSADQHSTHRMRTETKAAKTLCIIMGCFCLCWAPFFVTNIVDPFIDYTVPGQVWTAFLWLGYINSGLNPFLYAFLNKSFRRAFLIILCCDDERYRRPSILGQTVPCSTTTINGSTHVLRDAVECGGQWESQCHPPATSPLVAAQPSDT
Experimental: 1. Secondary Radioligand Binding Assays The detailed experimental protocols for the radioligand and functional receptor assays are available on the NIMH PDSP website at http://pdsp.med.unc.edu/UNC-CH %20Protocol %20Book.pdf. Assay Buffer: Standard Binding Buffer (50 mM Tris-HCl, 10 mM MgCl2, 1 mM EDTA, pH 7.4) Membrane Fraction Source: Transiently or stably transfected cell lines (e.g., HEK293, COS, CHO, NIH3T3) Protocol adapted from Roth et al. (1986), J. Pharmacol. Exp. Ther., 238(2): 480-485; and Roth et al. (1994), J. Pharmacol. Exp. Ther., 268(3): 1403-1410. […] A similar stock of a reference compound (positive control) is also prepared. […] Radioligand is diluted to five times the assay concentration (see Table 18) in Standard Binding Buffer. Typically, the assay concentration of radioligand is a value between one half the KD and the KD of a particular radioligand at its target. 50 μl aliquots of radioligand are dispensed into the wells of a 96-well plate containing 100 μl of Standard Binding Buffer. Then, duplicate 50 μl aliquots of the test and reference compound dilutions are added. Finally, crude membrane fractions of cells expressing recombinant target (prepared from 10 cm plates by harvesting PBS-rinsed monolayers, resuspending and lysing in chilled, hypotonic 50 mM Tris-HCl, pH 7.4, centrifuging at 20,000×g, decanting the supernatant and storing at −80° C.; typically, one 10 cm plate provides sufficient material for 24 wells), are resuspended in 3 ml of chilled Standard Binding Buffer and homogenized by several passages through a 26 gauge needle, then 50 μl are dispensed into each well. […] Four rapid 500 μl washes are performed with chilled Standard Binding Buffer to reduce non-specific binding. Filters are placed in 6 ml scintillation tubes and allowed to dry overnight. The next day, 4 ml of EcoScint scintillation cocktail (National Diagnostics) are added to each tube. The tubes are capped, labeled, and counted by liquid scintillation counting. For higher throughput assays, bound radioactivity is harvested onto 0.3% polyethyleneimine-treated, 96-well filter mats using a 96-well Filtermate harvester. The filter mats are dried, then scintillant is melted onto the filters and the radioactivity retained on the filters is counted in a Microbeta scintillation counter. Raw data (dpm) representing total radioligand binding (i.e. specific+non-specific binding) are plotted as a function of the logarithm of the molar concentration of the competitor (i.e. test or reference compound).

5HT2a receptor = 5HT2a receptor (Homo sapiens (Human), UniProt P28223); test: Secondary radioligand binding assay, 5HT2a; conditions: average of at least two experiments
Chain of 5HT2a receptor (P28223 whole entry): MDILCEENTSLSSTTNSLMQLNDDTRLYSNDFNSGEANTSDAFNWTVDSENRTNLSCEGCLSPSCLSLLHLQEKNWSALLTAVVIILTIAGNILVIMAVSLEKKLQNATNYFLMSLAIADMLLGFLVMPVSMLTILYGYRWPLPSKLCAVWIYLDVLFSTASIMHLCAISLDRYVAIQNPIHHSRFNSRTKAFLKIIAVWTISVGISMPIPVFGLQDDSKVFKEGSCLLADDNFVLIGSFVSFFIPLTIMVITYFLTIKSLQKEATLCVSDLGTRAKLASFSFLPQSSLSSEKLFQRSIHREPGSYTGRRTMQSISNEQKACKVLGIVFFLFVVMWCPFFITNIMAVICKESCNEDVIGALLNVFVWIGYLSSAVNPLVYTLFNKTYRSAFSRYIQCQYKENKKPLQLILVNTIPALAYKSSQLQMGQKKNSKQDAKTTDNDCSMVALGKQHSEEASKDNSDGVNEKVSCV

5HT1a receptor = 5HT1a receptor (Homo sapiens (Human), UniProt P08908); test: Secondary radioligand binding assay, 5HT1a; conditions: average of at least two experiments
Chain of 5HT1a receptor (P08908 whole entry): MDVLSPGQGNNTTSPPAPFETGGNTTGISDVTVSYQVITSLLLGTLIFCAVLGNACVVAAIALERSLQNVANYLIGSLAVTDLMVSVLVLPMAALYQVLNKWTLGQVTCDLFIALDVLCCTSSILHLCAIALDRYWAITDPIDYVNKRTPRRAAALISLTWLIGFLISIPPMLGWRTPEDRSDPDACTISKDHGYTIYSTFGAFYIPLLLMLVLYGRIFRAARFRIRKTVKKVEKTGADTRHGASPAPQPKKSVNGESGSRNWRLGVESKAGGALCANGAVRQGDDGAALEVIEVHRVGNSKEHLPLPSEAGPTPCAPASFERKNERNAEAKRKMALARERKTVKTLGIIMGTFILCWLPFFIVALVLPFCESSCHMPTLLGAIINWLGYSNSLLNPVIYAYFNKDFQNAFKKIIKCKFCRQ

dopamine D4 receptor = dopamine D4 receptor (Homo sapiens (Human), UniProt P21917); test: Secondary radioligand binding assay, D4
Chain of dopamine D4 receptor (P21917 whole entry, species assumed): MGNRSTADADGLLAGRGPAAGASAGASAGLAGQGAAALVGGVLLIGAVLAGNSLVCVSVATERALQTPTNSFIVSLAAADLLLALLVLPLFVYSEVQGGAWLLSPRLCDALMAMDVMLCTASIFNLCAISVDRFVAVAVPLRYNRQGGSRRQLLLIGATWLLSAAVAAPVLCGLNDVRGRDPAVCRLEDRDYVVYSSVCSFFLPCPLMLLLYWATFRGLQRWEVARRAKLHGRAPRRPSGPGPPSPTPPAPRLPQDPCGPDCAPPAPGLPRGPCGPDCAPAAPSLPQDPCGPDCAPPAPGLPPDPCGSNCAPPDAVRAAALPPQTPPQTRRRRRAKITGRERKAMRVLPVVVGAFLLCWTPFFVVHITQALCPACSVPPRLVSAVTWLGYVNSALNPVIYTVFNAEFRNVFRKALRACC
Experimental: as §1, §2, §3, §4, §5, §6, §7

5HT2c receptor = 5HT2c receptor (Homo sapiens (Human), UniProt P28335); test: Secondary radioligand binding assay, 5HT2c; conditions: average of at least two experiments
Chain of 5HT2c receptor (P28335 33-458): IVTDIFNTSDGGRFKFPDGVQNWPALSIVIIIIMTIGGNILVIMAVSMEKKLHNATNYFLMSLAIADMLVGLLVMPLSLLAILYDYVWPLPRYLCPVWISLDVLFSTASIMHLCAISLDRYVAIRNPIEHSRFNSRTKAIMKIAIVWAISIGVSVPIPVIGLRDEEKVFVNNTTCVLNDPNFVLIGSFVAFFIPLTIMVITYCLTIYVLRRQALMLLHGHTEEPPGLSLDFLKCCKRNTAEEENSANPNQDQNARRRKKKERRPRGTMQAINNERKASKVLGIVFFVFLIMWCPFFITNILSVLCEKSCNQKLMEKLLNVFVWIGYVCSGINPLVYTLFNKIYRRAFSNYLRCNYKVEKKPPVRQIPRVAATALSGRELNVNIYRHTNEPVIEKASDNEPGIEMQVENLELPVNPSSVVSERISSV

[1] = read-out: Ki dopamine D4 (relatively high affinity)
[2] = receptor binding, average of at least two experiments, read-out: Ki D4

Chain of dopamine D5 receptor (P21918 whole entry): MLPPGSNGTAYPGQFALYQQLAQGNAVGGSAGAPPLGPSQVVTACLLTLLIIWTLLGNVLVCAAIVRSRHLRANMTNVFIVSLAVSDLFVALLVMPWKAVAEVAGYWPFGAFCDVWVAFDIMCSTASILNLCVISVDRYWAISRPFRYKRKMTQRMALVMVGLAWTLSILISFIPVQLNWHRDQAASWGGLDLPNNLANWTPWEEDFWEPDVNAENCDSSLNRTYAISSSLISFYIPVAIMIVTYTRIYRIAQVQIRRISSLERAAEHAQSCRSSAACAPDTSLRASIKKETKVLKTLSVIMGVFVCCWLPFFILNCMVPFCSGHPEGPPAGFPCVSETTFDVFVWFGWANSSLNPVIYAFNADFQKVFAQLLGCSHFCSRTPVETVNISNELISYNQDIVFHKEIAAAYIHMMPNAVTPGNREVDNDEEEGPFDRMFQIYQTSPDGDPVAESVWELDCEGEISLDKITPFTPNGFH

| SMILES | Ki D5 (dopamine D5 receptor) | Ki 5HT4 (5HT4 receptor) | Ki (5HT2a receptor) | Ki (5HT1a receptor) | Ki (dopamine D4 receptor; [1]) | Ki (dopamine D4 receptor; [2]) | Ki (5HT2c receptor) | Ki (dopamine D5 receptor) |
| --- | --- | --- | --- | --- | --- | --- | --- | --- |
| Clc1cncc(OC[C@@H]2CN(CCN3CCc4ccccc43)CCO2)c1 [Compound 27s, (S)-2-(((5-Chloropyridin-3-yl)oxy)methyl)-4-(2-(indolin-1-yl)ethyl)morpholine] | — | — |  |  |  |  |  |  |
| Clc1cccc(OC[C@H]2CN(CCN3CCc4ccccc43)CCO2)c1 [Compound 23r, (R)-2-((3-Chlorophenoxy)methyl)-4-(2-(indolin-1-yl)ethyl)morpholine] | — | — | 2670 nM |  |  |  |  |  |
| Cc1ccc(OC[C@H]2CN(CCN3CCc4ccccc43)CCO2)cn1 [Compound 28r, (R)-4-(2-(Indolin-1-yl)ethyl)-2-(((6-methylpyridin-3-yl)oxy)methyl)morpholine] | — | — | 1480 nM |  |  |  |  |  |
| O=C(CN1CCO[C@@H](COc2ccccn2)C1)N1CCc2ccccc21 [Compound 14r, (R)-1-(Indolin-1-yl)-2-(2-((pyridin-2-yloxy)methyl)morpholino)ethanone] | — | — |  |  |  |  |  |  |
| CC1Cc2ccccc2N1C(=O)CN1CCO[C@@H](COc2ccccn2)C1 (some centres unmarked) [Compound 69] | — | — |  | > 10 µM |  |  |  |  |
| Cc1ncccc1OC[C@@H]1CN(CCN2CCc3ccccc32)CCO1 [Compound 26s, (S)-4-(2-(Indolin-1-yl)ethyl)-2-(((2-methylpyridin-3-yl)oxy)methyl)morpholine] | — | — |  |  | < 1000 nM | < 1000 nM and 435 nM |  |  |
| O=C(CN1CCO[C@@H](COc2cccnc2)C1)N1CCc2ccccc21 [Compound 20r, (R)-1-(Indolin-1-yl)-2-(2-((pyridin-3-yloxy)methyl)morpholino)ethanone] | — | — | 2660 nM |  |  |  |  |  |
| COc1cccc(OC[C@@H]2CN(CCN3CCc4ccccc43)CCO2)c1 [Compound 25s, (S)-4-(2-(Indolin-1-yl)ethyl)-2-((3-methoxyphenoxy)methyl)morpholine] |  | — | 1400 nM | 0.174 µM |  |  | 3.76 µM | 8.53 µM |
| c1ccc(OC[C@H]2CN(CCN3CCc4ccccc43)CCO2)nc1 [Compound 15r, (R)-4-(2-(Indolin-1-yl)ethyl)-2-((pyridin-2-yloxy)methyl)morpholine] | — | — |  | 2.88 µM |  | 814 nM |  |  |
| Clc1cncc(OC[C@H]2CN(CCN3CCc4ccccc43)CCO2)c1 [Compound 27r, (R)-2-(((5-Chloropyridin-3-yl)oxy)methyl)-4-(2-(indolin-1-yl)ethyl)morpholine] | — | — |  |  |  |  |  |  |
| c1cncc(OC[C@H]2CN(CCN3CCc4ccccc43)CCO2)c1 [Compound 21r, (R)-4-(2-(Indolin-1-yl)ethyl)-2-((pyridin-3-yloxy)methyl)morpholine] | — | — | 3580 nM |  |  | 2410 nM |  |  |
| CC1Cc2ccccc2N1C(=O)CN1CCO[C@@H](COc2ccncc2)C1 (some centres unmarked) [Compound 68] | — | — |  | > 10 µM |  |  |  |  |
| C[C@@H]1Cc2ccccc2N1C(=O)CN1CCO[C@@H](COc2ccncc2)C1 [Compound 67] | — | — |  | > 10 µM |  |  |  |  |
| O=C(CN1CCO[C@H](COc2cccnc2)C1)N1CCc2ccccc21 [Compound 20s, (S)-1-(Indolin-1-yl)-2-(2-((pyridin-3-yloxy)methyl)morpholino)ethanone] | — | — |  |  |  |  |  |  |
| Cc1ccnc(OC[C@H]2CN(CC(=O)N3CCc4ccccc43)CCO2)c1 [Compound 16r] | — | — |  |  |  |  |  |  |
| Cc1ccnc(C)c1OC[C@H]1CN(CCN2CCc3ccccc32)CCO1 [Compound 29r, (R)-2-(((2,4-Dimethylpyridin-3-yl)oxy)methyl)-4-(2-(indolin-1-yl)ethyl)morpholine] | — | — | > 10000 nM |  |  | 4950 nM |  |  |
| Cc1ccnc(OC[C@H]2CN(CCN3CCc4ccccc43)CCO2)c1 [Compound 17r, (R)-4-(2-(Indolin-1-yl)ethyl)-2-(((4-methylpyridin-2-yl)oxy)methyl)morpholine] | — | — |  |  |  | 1930 nM |  |  |
| c1ccc(OC[C@@H]2CN(CCN3CCc4ccccc43)CCO2)cc1 [Compound 19s, (S)-4-(2-(Indolin-1-yl)ethyl)-2-(phenoxymethyl)morpholine] | — | — | 817 nM | 0.0006 µM |  | < 1000 nM and 132 nM | 6.74 µM |  |
| Cc1ccnc(OC[C@H]2CN(CC(=O)N3c4ccccc4CC3C)CCO2)c1 (some centres unmarked) [Compound 70] | — | — |  | 6.37 µM |  |  | 6.37 µM |  |
| Cc1ncccc1OC[C@H]1CN(CC(=O)N2c3ccccc3C[C@H]2C)CCO1 [Compound 63] | — | — |  | 5.02 µM |  |  |  |  |
| O=C(CN1CCO[C@H](COc2ccccc2)C1)N1CCc2ccccc21 [Compound 18s, (S)-1-(Indolin-1-yl)-2-(2-(phenoxymethyl)morpholino)ethanone] | — | — |  |  |  | 5530 nM |  |  |
| Cc1ccc(OC[C@@H]2CN(CCN3CCc4ccccc43)CCO2)cn1 [Compound 28s, (S)-4-(2-(Indolin-1-yl)ethyl)-2-(((6-methylpyridin-3-yl)oxy)methyl)morpholine] | — | — |  |  | < 1000 nM | < 1000 nM |  |  |
| Cc1ncccc1OC[C@H]1CN(CC(=O)N2c3ccccc3CC2C)CCO1 (some centres unmarked) [Compound 62] | — | — |  | 6.59 µM |  |  |  |  |
| Cc1ncccc1OC[C@@H]1CN(CC(=O)N2c3ccccc3CC2C)CCO1.Cl (some centres unmarked) [Compound 60] | — | — |  | 0.592 µM |  |  |  |  |
| Cc1ncccc1OC[C@H]1CN(CCN2CCc3ccccc32)CCO1 [Compound 26r, (R)-4-(2-(Indolin-1-yl)ethyl)-2-(((2-methylpyridin-3-yl)oxy)methyl)morpholine] | — | — |  |  |  |  |  |  |

— patent US9079895B2, “Morpholino compounds, uses and methods” (University of Dundee, priority 2012, dated 2015)
